Data: US20040024024A1, “Aromatic sulfone hydroxamates and their use as protease inhibitors” (priority 2001, published 2004)

Key:
Test in all cases: In vitro MMP inhibition, Ki determination (fluorogenic substrate II)
Format in all cases: biochemical
Details in all cases: value in parentheses
Human recombinant MMP-13 = target: T1, Human recombinant MMP-13 (Homo sapiens, UniProt P45452)
T1 construct: made in house; host or cells: baculovirus / insect cells
In short: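 Baculovirus-expressed proenzyme, APMA-activated; 4 μM fluorogenic MCA/Dpa peptide substrate (II), at or below Km, in Tris buffer pH 7.5 with CaCl2, 1 hr at room temperature. Fluorescence at 330/420 nm; Ki from non-linear regression with Morrison's equation, not corrected for substrate.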

Human recombinant MMP-14 = target: T2, Human recombinant MMP-14 (Homo sapiens, UniProt P50281)
T2 construct: The catalytic domain enzyme was expressed in E. coli inclusion bodies, solubilized in urea; made in house
In short: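 Refolded E. coli-expressed MMP-14 catalytic domain, APMA- or trypsin-activated, incubated 1 h at room temperature with 4 μM fluorogenic substrate II in pH 7.5 Tris/NaCl/CaCl2 buffer; fluorescence read at 330/420 nm. Ki from Morrison-equation non-linear regression, substrate at or below Km, uncorrected for substrate.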

Human recombinant MMP-1 = target: T3, Human recombinant MMP-1 (Homo sapiens, UniProt P03956)
T3 construct: made in house; host or cells: MMP-1-transfected HT-1080 cells (spent media)
T3 sequence (P03956 100-469): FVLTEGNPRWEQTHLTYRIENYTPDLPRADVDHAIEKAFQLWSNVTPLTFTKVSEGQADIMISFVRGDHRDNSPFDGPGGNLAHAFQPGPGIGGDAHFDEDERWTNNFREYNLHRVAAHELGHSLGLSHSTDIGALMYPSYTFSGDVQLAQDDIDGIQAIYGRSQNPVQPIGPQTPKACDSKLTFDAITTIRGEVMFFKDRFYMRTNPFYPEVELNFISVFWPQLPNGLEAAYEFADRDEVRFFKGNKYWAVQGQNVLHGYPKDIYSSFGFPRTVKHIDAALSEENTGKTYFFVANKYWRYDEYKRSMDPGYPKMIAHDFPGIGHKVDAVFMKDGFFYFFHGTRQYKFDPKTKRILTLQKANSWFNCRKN
In short: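 Activated human recombinant MMP-1 (APMA- or trypsin-activated; proenzyme from transfected HT-1080 cells) incubated 1 hr at room temperature with 4 μM MCA/Dpa fluorogenic substrate II at or below Km in Tris buffer pH 7.5 with CaCl2. Fluorescence ex 330/em 420 nm; Ki from Morrison-equation non-linear regression, uncorrected for substrate.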

| Ki (Human recombinant MMP-13) [nM] | Ki (Human recombinant MMP-14) [nM] | Ki (Human recombinant MMP-1) [nM] | Compound |
| --- | --- | --- | --- |
| 0.25 | 2180 | > 10000 | COCCN1CCC(C(=O)NO)(S(=O)(=O)c2ccc(OCCCc3cccc(-c4cccs4)c3)cc2)CC1 [Example 510] |
| 1.07 | > 10000 | > 10000 | COCCN1CCC(C(=O)NO)(S(=O)(=O)c2ccc(OCCCc3cccc(-c4ccccc4F)c3)cc2)CC1 [Example 512] |
| 2.57 | 5700 | > 10000 | CCC(=O)c1cccc(CCCOc2ccc(S(=O)(=O)C3(C(=O)NO)CCOCC3)cc2)c1 [Example 528] |
| 7.33 | > 10000 | > 10000 | O=C(NO)C1(S(=O)(=O)c2ccc(OCCCc3cccc(-c4cccc(O)c4)c3)cc2)CCOCC1 [Example 530] |
| 0.226 | 6680 | > 10000 | CCCCc1ccc(CCCOc2ccc(S(=O)(=O)C3(C(=O)NO)CCOCC3)cc2)cn1 [Example 533] |
| 0.261 | 3870 | > 10000 | CCc1ccc(CCCOc2ccc(S(=O)(=O)C3(C(=O)NO)CCOCC3)cc2)cn1 [Example 535] |
| 0.21 | 1180 | 9130 | COCCN1CCC(C(=O)NO)(S(=O)(=O)c2ccc(OCCc3cccc(-c4cccnc4)c3)cc2)CC1 [Example 539] |

More lines, now with the values behind:

| Compound | Ki (Human recombinant MMP-13) [nM] | Ki (Human recombinant MMP-14) [nM] | Ki (Human recombinant MMP-1) [nM] |
| --- | --- | --- | --- |
| COCCN1CCC(C(=O)NO)(S(=O)(=O)c2ccc(OCCCc3cncc(-c4ccccc4)c3)cc2)CC1 [Example 508] | 0.141 | 2790 | 4850 |
| COCCN1CCC(C(=O)NO)(S(=O)(=O)c2ccc(OCCCc3cccc(-c4cccnc4)c3)cc2)CC1 [Example 509] | 0.297 | 4160 | > 10000 |
| COCCN1CCC(C(=O)NO)(S(=O)(=O)c2ccc(OCCCc3cccc(-c4cccc(F)c4)c3)cc2)CC1 [Example 511] | 1.36 | > 10000 | > 10000 |
| COCCN1CCC(C(=O)NO)(S(=O)(=O)c2ccc(OCCCc3cccc(-c4ccc(F)cc4F)c3)cc2)CC1 [Example 513] | 0.98 | 9270 | > 10000 |
| COCCN1CCC(C(=O)NO)(S(=O)(=O)c2ccc(OCCCc3cccc(-c4ccc(C#N)cc4)c3)cc2)CC1 [Example 514] | 0.28 | 4080 | > 10000 |
| CCN1CCC(C(=O)NO)(S(=O)(=O)c2ccc(OCCCc3cccc(-c4ccc(Cl)cc4)c3)cc2)CC1 [Example 526] | 3.96 | > 10000 | > 10000 |
| Cc1ccc(NC(=O)CCCOc2ccc(S(=O)(=O)C3(C(=O)NO)CCOCC3)cc2)cc1I [Example 527] | 0.044 | 1360 | 5100 |
| O=C(NO)C1(S(=O)(=O)c2ccc(OCCCc3cccc(-c4ccc(O)cc4)c3)cc2)CCOCC1 [Example 529] | 20.2 | > 10000 | > 10000 |
| O=C(NO)C1(S(=O)(=O)c2ccc(OCCc3ccc(-c4ccc(O)cc4)cc3)cc2)CCOCC1 [Example 531] | 2.72 | > 10000 | > 10000 |
| O=C(NO)C1(S(=O)(=O)c2ccc(OCCc3ccc(-c4cccc(O)c4)cc3)cc2)CCOCC1 [Example 532] | 1.02 | > 10000 | > 10000 |
| CCCc1ccc(CCCOc2ccc(S(=O)(=O)C3(C(=O)NO)CCOCC3)cc2)cn1 [Example 534] | 0.493 | 6810 | > 10000 |
| CN1CCC(C(=O)NO)(S(=O)(=O)c2ccc(SCCNC(=O)c3cc4ccccc4o3)cc2)CC1 [Example 536] | 3.4 | > 10000 | > 10000 |
| COCCN1CCC(C(=O)NO)(S(=O)(=O)c2ccc(OCCc3cccc(-c4ccncc4)c3)cc2)CC1 [Example 538] | 0.184 | 1700 | > 10000 |
| COCCN1CCC(C(=O)NO)(S(=O)(=O)c2ccc(OCCc3cccc(-c4ccccc4F)c3)cc2)CC1 [Example 540] | 0.58 | > 10000 | > 10000 |
| O=C(NCCSc1ccc(S(=O)(=O)C2(C(=O)NO)CCN(C3CC3)CC2)cc1)c1nc2ccccc2s1 [Example 541] | 0.24 | > 10000 | > 10000 |
